For 25 compounds, IC50 results are on record in US8895745B2, “Bicyclic heterocyclic compounds as FGFR inhibitors” (Astex Therapeutics Limited, priority 2006, dated 2014).

The structures appear in SMILES notation. Where a name gives a salt, the structure may show the parent alone. Where only a bound is given, the exact number is not on record here.

For the first test, the system named is LP-1 cell line. As to the kind of experiment: Cell-based pERK ELISA method, LP-1 cells. Particulars: Homo sapiens, LP-1, read-out: IC50 less than 1 μM or at least 50% inhibition at a concentration of 1 μM, LP-1 pERK ELISA. For orientation: In an ELISA, binding on a coated surface is turned into a signal by an enzyme label.
For the compound `CN1CCN(c2ccc(-c3ccn4c(-c5cccc(NC(=O)NCC(F)(F)F)c5)cnc4c3)cc2)CC1` [Example 245, 1-(3-{7-[4-(4-Methyl-piperazin-1-yl)-phenyl]-imidazo[1,2-a]pyridin-3-yl}-phenyl)-3-(2,2,2-trifluoro-ethyl)-urea Acetic acid], the IC50 is less than 1 µM.

For `CC(C)Oc1cc(NC(=O)NCC(F)(F)F)cc(-c2cnc3cc(-c4ccc(F)cc4)ccn23)c1` [Example 238, 1-{3-[7-(4-Fluoro-phenyl)-imidazo[1,2-a]pyridin-3-yl]-5-isopropoxy-phenyl}-3-(2,2,2-trifluoro-ethyl)-urea], the IC50 is less than 1 µM.

As to `CN1CCN(C(=O)c2cccc(-c3ccn4c(-c5cccc(NC(=O)NCC(F)(F)F)c5)cnc4c3)c2)CC1` [Example 220, 1-(3-{7-[3-(4-Methyl-piperazine-1-carbonyl)-phenyl]-imidazo[1,2-a]pyridin-3-yl}-phenyl)-3-(2,2,2-trifluoro-ethyl)-urea], the IC50 was less than 1 µM.

In the case of `O=C(NCC(F)(F)F)Nc1cccc(-c2cnc3cc(N4CCOCC4)ccn23)c1` [Example 108, 1-[3-(7-Morpholin-4-yl-imidazo[1,2-a]pyridin-3-yl)-phenyl]-3-(2,2,2-trifluoro-ethyl)-urea hydrochloride salt], the IC50 is less than 1 µM.

In the case of `CCNC(=O)Nc1cccc(-c2cnc3cc(-c4ccc(N(C)C)nc4)ccn23)c1` [Example 80, 1-{3-[7-(6-Dimethylamino-pyridin-3-yl)-imidazo[1,2-a]pyridin-3-yl]-phenyl}-3-ethyl-urea formate salt], the IC50 was less than 1 µM.

On to `O=C(NCC(F)(F)F)Nc1cccc(-c2cnc3cc(-c4cccc(C(=O)N5CCC5)c4)ccn23)c1` [Example 264, 1-(3-{7-[3- (Azetidine 1-carbonyl)-phenyl]-imidazo[1,2-a]pyridin-3-yl}-phenyl)-3-(2,2,2-trifluoro-ethyl)-urea], for which the IC50 was less than 1 µM.

Turning to `CN(C)C(=O)/C=C/c1ccn2c(-c3cccc(NC(=O)NCC(F)(F)F)c3)cnc2c1` [Example 345, (E)-N,N-Dimethyl-3-(3-{3-[3-(2,2,2-trifluoro-ethyl)-ureido]-phenyl}-imidazo[1,2-a]pyridin-7-yl)-acrylamide], the IC50 was less than 1 µM.

Turning to `O=C(NCC(F)(F)F)Nc1cccc(-c2cnn3cc(-c4cn[nH]c4)cnc23)c1` [Example 155, 1-{3-[6-(1H-Pyrazol-4-yl)-pyrazolo[1,5-a]pyrimidin-3-yl]-phenyl}-3-(2,2,2-trifluoro-ethyl)-urea Hydrochloride], the IC50 is less than 1 µM.

For `O=C(NCC(F)(F)F)Nc1cccc(-c2cnc3cc(-c4cccc(C(=O)N5CCCNCC5)c4)ccn23)c1` [Example 283, 1-(3-{7-[3-([1,4] Diazepane-1-carbonyl)-phenyl]-imidazo[1,2-a]pyridin-3-yl}-phenyl)-3-(2,2,2-trifluoro-ethyl)-urea Hydrochloride], the IC50 was less than 1 µM.

For `CCC(=O)Nc1cccc(-c2cnc3cc(-c4ccc(F)cc4)ccn23)c1` [Example 64, N-{3-[7-(4-Fluoro-phenyl)-imidazo[1,2-a]pyridin-3-yl]-phenyl}-propionamide], the IC50 is less than 1 µM.

Turning to `Cc1nn(C)c(C)c1-c1ccn2c(-c3cccc(NC(=O)NCC(F)(F)F)c3)cnc2c1` [Example 234, 1-(2,2,2-Trifluoro-ethyl)-3-{3-[7-(1,3,5-trimethyl-1H-pyrazol-4-yl)-imidazo[1,2-a]pyridin-3-yl]-phenyl}-urea], the IC50 is less than 1 µM.

`CCNC(=O)Nc1cccc(-c2cnc3cc(-c4ccc(CN5CCC5)cc4)ccn23)c1` [Example 82, 1-{3-[7-(4-Azetidin-1-ylmethyl-phenyl)-imidazo[1,2-a]pyridin-3-yl]-phenyl}-3-ethyl-urea]: the IC50 was less than 1 µM.

Turning to `CCNC(=O)Nc1cccc(-c2cnc3cc(-c4ccsc4)ccn23)c1` [Example 115, 1-Ethyl-3-[3-(7-thiophen-3-yl-imidazo[1,2-a]pyridine-3-yl)-phenyl]-urea formate salt], the IC50 is less than 1 µM.

Consider `CCNC(=O)Nc1cccc(-c2cnn3cc(-c4ccc(F)cc4)cnc23)c1` [Example 111, 1-Ethyl-3-{3-[6-(4-fluoro-phenyl)-pyrazolo[1,5-a]pyrimidin-3-yl]-phenyl}-urea], for which the IC50 was less than 1 µM.

Turning to `CC(C)NC(=O)c1cccc(-c2ccn3c(-c4cccc(NC(=O)NCC(F)(F)F)c4)cnc3c2)c1` [Example 267, N-Isopropyl-3-(3-{3-[3-(2,2,2-trifluoro-ethyl)-ureido]-phenyl}-imidazo[1,2-a]pyridin-7-yl)-benzamide], the IC50 is less than 1 µM.

With `O=C(NCC(F)(F)F)Nc1cccc(-c2cnc3cc(Cl)ccn23)c1` [Example 228], the IC50 is less than 1 µM.

As to `CC(=O)Nc1cccc(-c2cnc3cc(-c4ccc(F)cc4)ccn23)c1` [Example 7, N-{3-[7-(4-Fluoro-phenyl)-imidazo[1,2-a]pyridin-3-yl]-phenyl}-acetamide], the IC50 was less than 1 µM.

In the case of `CC(=O)N1CCC(Oc2cccc(-c3ccn4c(-c5cccc(NC(=O)NCC(F)(F)F)c5)cnc4c3)c2)CC1` [Example 193, 1-(3-{7-[3-(1-Acetyl-piperidin-4-yloxy)-phenyl]-imidazo[1,2-a]pyridin-3-yl}-phenyl)-3-(2,2,2-trifluoro-ethyl)-urea Formate], the IC50 was less than 1 µM.

With `CCNC(=O)Nc1cccc(-c2cnc3cc(-c4ccc(C(C)(C)C(=O)OC)cc4)ccn23)c1` [Example 39, 2-(4-{3-[3-(3-Ethyl-ureido)-phenyl]-imidazo[1,2-a]pyridin-7-yl}-phenyl)-2-methyl-propionic acid methyl ester], the IC50 was less than 1 µM.

Consider `CC(=O)Nc1cccc(-c2cnc3cc(-c4ccc(OCC(O)CO)cc4)ccn23)c1` (stereo not shown) [Example 65, N-(3-{7-[4-(2,3-Dihydroxy-propoxy)-phenyl]-imidazo[1,2-a]pyridin-3-yl}-phenyl)-acetamide], for which the IC50 is less than 1 µM.

As to `CCNC(=O)Nc1cccc(-c2cnc3cc(-c4cccc(C(=O)N5CCOCC5)c4)ccn23)c1` [Example 36, 1-Ethyl-3-(3-{7-[3-(morpholine-4-carbonyl)-phenyl]-imidazo[1,2-a]pyridin-3-yl}-phenyl)-urea], the IC50 is less than 1 µM.

For `O=C(NCC(F)(F)F)Nc1cccc(-c2cnc3cc(-c4ccnc(OC5CCOCC5)c4)ccn23)c1` [Example 212, 1-(3-{7-[2-(Tetrahydro-pyran-4-yloxy)-pyridin-4-yl]-imidazo[1,2-a]pyridin-3-yl}-phenyl)-3-(2,2,2-trifluoro-ethyl)-urea], the IC50 is less than 1 µM.

For the compound `COCCNC(=O)c1cccc(-c2ccn3c(-c4cccc(NC(=O)NCC(F)(F)F)c4)cnc3c2)c1` [Example 263, N-(2-Methoxy-ethyl)-3-(3-{3-[3-(2,2,2-trifluoro-ethyl)-ureido]-phenyl}-imidazo[1,2-a]pyridin-7-yl)-benzamide], the IC50 was less than 1 µM.

As for `O=C(NCCF)Nc1cccc(-c2cnc3cc(-c4ccc(F)cc4)ccn23)c1` [Example 134, 1-(2-Fluoro-ethyl)-3-{3-[7-(4-fluoro-phenyl)-imidazo[1,2-a]pyridin-3-yl]-phenyl}-urea Hydrochloride], the IC50 was less than 1 µM.

The test is the same for the next values; noted with them: Homo sapiens, LP-1, read-out: LP-1 pERK ELISA (μM).
Turning to `Cn1cnc(-c2ccn3c(-c4cccc(NC(=O)NCC(F)(F)F)c4)cnc3c2)c1` [Example 375, 1-{3-[7-(1-Methyl-1H-imidazol-4-yl)-imidazo[1,2-a]pyridin-3-yl]-phenyl}-3-(2,2,2-trifluoro-ethyl)-urea], the IC50 was determined as 0.022 µM.
